Results reported in EPA's ToxRefDB 2.

Experiments:
rat [1] = conditions: Multigenerational reproductive toxicity study, other, Oral, Feed, dose end: 2 generation
dog [2] = conditions: Chronic toxicity, beagle, Oral, Capsule, dose end: 52 week, group: systemic
rat [3] = conditions: Subchronic oral toxicity in rodents, fischer, Feed, dose end: 13 week, group: systemic
dog [4] = conditions: Subchronic oral toxicity in nonrodent, beagle, Capsule, dose end: 13 week, group: systemic, systemic / in life observation / clinical signs / salivation + systemic / pathology microscopic / liver / proliferation
mouse [5] = conditions: Subchronic oral toxicity in rodents, b6c3f1, Feed, dose end: 13 week, group: systemic
rat [6] = conditions: Combined chronic toxicity/carcinogenicity; fischer; Oral; Feed; dose end: 104 week; group: systemic; systemic / in life observation / clinical signs / body cold to touch + systemic / in life observation / clinical signs / emaciation + …
mouse [7] = conditions: Carcinogenicity, b6c3f1, Oral, [Not Specified], dose end: 104 week, group: systemic
mouse [8] = conditions: Carcinogenicity; cd1; Oral; [Not Specified]; dose end: 24 month; group: systemic; systemic / in life observation / body weight / body weight gain
dog [9] = conditions: Subchronic oral toxicity in nonrodent, beagle, Feed, dose end: 13 week, group: systemic, systemic / clinical chemistry / alkaline phosphatase (alp/alk) / alkaline phosphatase (alp/alk) + systemic / organ weight / prostate / …
rat [10] = conditions: Carcinogenicity, sprague dawley, Oral, Feed, dose end: 104 week, group: systemic
rat [11] = conditions: Subchronic oral toxicity in rodents, sprague dawley, Feed, dose end: 95 day, group: systemic
rat [12] = conditions: Chronic toxicity; sprague dawley; Oral; Feed; dose end: 104 week; group: systemic; systemic / in life observation / body weight / body weight + systemic / in life observation / body weight / body weight gain + systemic / …
dog [13] = conditions: Chronic toxicity, beagle, Oral, Feed, dose end: 52 week, group: systemic
rat [14] = conditions: Prenatal developmental toxicity study, sprague dawley, Oral, Gavage/Intubation, dose end: 15 GD
rat [15] = conditions: Prenatal developmental toxicity study, sprague dawley, Oral, Gavage/Intubation, dose end: 15 GD; remark: listed apart in the source
rabbit [16] = conditions: Prenatal developmental toxicity study, new zealand white, Oral, Gavage/Intubation, dose end: 18 GD
rat [17] = conditions: Sub-acute dermal toxicity, sprague dawley, Topical, dose end: 21 day, group: systemic
rabbit [18] = conditions: Prenatal developmental toxicity study, new zealand white, Oral, Gavage/Intubation, dose end: 18 GD; remark: listed apart in the source
rat [19] = conditions: Subchronic dermal toxicity, sprague dawley, Topical, dose end: 91 day, group: systemic
[20] = group: offspring, systemic / in life observation / body weight / offspring (pup) weight + systemic / in life observation / body weight / offspring (pup) …
[21] = group: parental, systemic / pathology microscopic / liver / hyperplasia
[22] = group: parental, systemic / pathology microscopic / liver / hyperplasia + systemic / pathology microscopic / liver / inflammation
[23] = systemic / pathology microscopic / liver / [other] + systemic / pathology microscopic / liver / hyperplasia
[24] = systemic / pathology microscopic / liver / [other] + systemic / pathology microscopic / liver / hyperplasia + systemic / in life observation…
[25] = systemic / clinical chemistry / alkaline phosphatase (alp/alk) / alkaline phosphatase (alp/alk) + systemic / clinical chemistry / gamma …
[26] = systemic / clinical chemistry / cholesterol / cholesterol
[27] = systemic / pathology microscopic / liver / [other]
[28] = systemic / pathology microscopic / liver / [other] + systemic / in life observation / body weight / body weight + systemic / in life …
[29] = systemic / pathology microscopic / liver / hematopoietic cell proliferation granulocytic + systemic / pathology gross / liver / accentuated …
[30] = systemic / in life observation / body weight / body weight + systemic / in life observation / body weight / body weight gain
[31] = systemic / in life observation / body weight / body weight + systemic / in life observation / body weight / body weight gain + systemic / in…
[32] = systemic / pathology microscopic / liver / vacuolization
[33] = systemic / pathology microscopic / liver / vacuolization + systemic / hematology / erythrocyte (rbc) count differential / erythrocyte (rbc…
[34] = systemic / organ weight / prostate / absolute + systemic / organ weight / prostate / relative to body weight + systemic / clinical chemistry…
[35] = group: developmental, systemic / in life observation / body weight / fetal weight
[36] = group: maternal, systemic / in life observation / body weight / body weight gain
[37] = group: maternal, systemic / in life observation / body weight / body weight + systemic / in life observation / body weight / body weight gain + systemic / in…
[38] = group: maternal, reproductive / reproductive performance / resorptions / resorptions
[39] = systemic / in life observation / body weight / body weight gain + systemic / in life observation / clinical signs / desquamation + systemic…
[40] = systemic / pathology gross / skin / scabbing
[41] = group: developmental, developmental / developmental malformation / bone / misaligned + systemic / in life observation / body weight / fetal weight + developmental…
[42] = group: maternal, reproductive / reproductive performance / aborted / aborted + reproductive / reproductive performance / postimplantation loss / …
[43] = systemic / pathology microscopic / skin / acanthosis + systemic / hematology / blood clotting / blood clotting - prothrombin time + systemic…

## COc1cc(OC)nc(Oc2cccc(Oc3nc(OC)cc(OC)n3)c2C(=O)[O-])n1.[Na+] [Bispyribac-sodium]
Rat [1]; [20]
  LEL: 759 mg/kg/day
  LOAEL: 759 mg/kg/day
  NEL: 75.7 mg/kg/day
  NOAEL: 75.7 mg/kg/day
Rat [1]; [21]
  LEL: 75.7 mg/kg/day
  LOAEL: 75.7 mg/kg/day
Rat [1]; [22]
  NEL: 1.5 mg/kg/day
  NOAEL: 1.5 mg/kg/day
Dog [2]; [23]
  LEL: 100 mg/kg/day
  LOAEL: 100 mg/kg/day
Dog [2]; [24]
  NEL: 10 mg/kg/day
  NOAEL: 10 mg/kg/day
Rat [3]; [25]
  LOAEL: 724 mg/kg/day
  NOAEL: 71.9 mg/kg/day
Rat [3]; [26]
  LEL: 8.1 mg/kg/day
  NEL: < 8.1 mg/kg/day
Dog [4]
  LEL: 600 mg/kg/day
  LOAEL: 600 mg/kg/day
  NEL: 100 mg/kg/day
  NOAEL: 100 mg/kg/day
Mouse [5]; [27]
  LEL: 699 mg/kg/day
  LOAEL: 699 mg/kg/day
Mouse [5]; [28]
  NEL: 68.6 mg/kg/day
  NOAEL: 68.6 mg/kg/day
Rat [6]
  LEL: 194 mg/kg/day
  LOAEL: 194 mg/kg/day
  NEL: 10.9 mg/kg/day
  NOAEL: 10.9 mg/kg/day
Mouse [7]; systemic / pathology microscopic / liver / hematopoietic cell proliferation granulocytic + systemic / in life observation / body weight / …
  LOAEL: 353 mg/kg/day
Mouse [7]; [29]
  LEL: 1.4 mg/kg/day
  NEL: < 1.4 mg/kg/day
Mouse [7]; systemic / pathology microscopic / liver / hematopoietic cell proliferation granulocytic + systemic / pathology microscopic / liver / giant …
  NOAEL: 14.1 mg/kg/day

## COc1ccc(C(=CC(=O)N2CCOCC2)c2ccc(Cl)cc2)cc1OC [Dimethomorph]
Mouse [8]
  LEL: 977 mg/kg/day
  LOAEL: 977 mg/kg/day
  NEL: 96.8 mg/kg/day
  NOAEL: 96.8 mg/kg/day
Dog [9]
  LEL: 43 mg/kg/day
  LOAEL: 43 mg/kg/day
  NEL: 15 mg/kg/day
  NOAEL: 15 mg/kg/day
Rat [10]; [30]
  LEL: 46.3 mg/kg/day
  LOAEL: 46.3 mg/kg/day
Rat [10]; [31]
  NEL: 11.3 mg/kg/day
  NOAEL: 11.3 mg/kg/day
Rat [11]; [32]
  LEL: 2.9 mg/kg/day
  NEL: < 2.9 mg/kg/day
Rat [11]; [33]
  LOAEL: > 73 mg/kg/day
  NOAEL: ≥ 73 mg/kg/day
Rat [12]
  LEL: 57.7 mg/kg/day
  LOAEL: 57.7 mg/kg/day
  NEL: 11.9 mg/kg/day
  NOAEL: 11.9 mg/kg/day
Dog [13]; systemic / organ weight / prostate / absolute + systemic / organ weight / prostate / relative to body weight
  LOAEL: 44.6 mg/kg/day
Dog [13]; [34]
  LEL: 44.6 mg/kg/day
  NEL: 14.7 mg/kg/day
  NOAEL: 14.7 mg/kg/day

## CN(C)C(=S)[S-].[K+] [Potassium dimethyldithiocarbamate]
Rat [14]; [35]
  LEL: 600 mg/kg/day
  LOAEL: 600 mg/kg/day
  NEL: 400 mg/kg/day
  NOAEL: 400 mg/kg/day
Rat [14]; [36]
  LEL: 100 mg/kg/day
  NEL: < 100 mg/kg/day
Rat [14]; group: maternal, systemic / in life observation / body weight / body weight gain + systemic / in life observation / clinical signs / salivation
  LOAEL: 400 mg/kg/day
Rat [14]; group: maternal, systemic / in life observation / body weight / body weight gain + systemic / in life observation / clinical signs / salivation + …
  NOAEL: 200 mg/kg/day
Rat [15]; [35]
  LEL: 400 mg/kg/day
  LOAEL: > 400 mg/kg/day
  NEL: 150 mg/kg/day
  NOAEL: ≥ 400 mg/kg/day
Rat [15]; [37]
  LEL: 150 mg/kg/day
  LOAEL: 150 mg/kg/day
  NEL: 25 mg/kg/day
  NOAEL: 25 mg/kg/day
Rabbit [16]; [35]
  LEL: 50 mg/kg/day
  LOAEL: 150 mg/kg/day
  NEL: 25 mg/kg/day
  NOAEL: 50 mg/kg/day
Rabbit [16]; [38]
  LEL: 25 mg/kg/day
  NEL: < 25 mg/kg/day
Rabbit [16]; group: maternal, reproductive / reproductive performance / resorptions / resorptions + systemic / in life observation / body weight / body weight gain + …
  NOAEL: 50 mg/kg/day
Rabbit [16]; [36]
  LOAEL: 150 mg/kg/day
Rat [17]; [39]
  LOAEL: 750 mg/kg/day
  NOAEL: 500 mg/kg/day
Rat [17]; [40]
  LEL: 100 mg/kg/day
  NEL: < 100 mg/kg/day
Rabbit [18]; group: developmental, developmental / developmental malformation / bone / misaligned + systemic / in life observation / body weight / fetal weight
  LOAEL: 38 mg/kg/day
Rabbit [18]; [41]
  LEL: 38 mg/kg/day
  NEL: 12.8 mg/kg/day
  NOAEL: 12.8 mg/kg/day
Rabbit [18]; [42]
  LEL: 38 mg/kg/day
  LOAEL: 38 mg/kg/day
  NEL: 12.8 mg/kg/day
  NOAEL: 12.8 mg/kg/day
Rat [19]; systemic / pathology gross / skin / scabbing + systemic / pathology microscopic / skin / acanthosis
  LOAEL: 350 mg/kg/day
Rat [19]; systemic / pathology gross / skin / scabbing + systemic / pathology microscopic / skin / acanthosis + systemic / hematology / blood clotting…
  NOAEL: 75 mg/kg/day
Rat [19]; [43]
  LEL: 75 mg/kg/day
  NEL: < 75 mg/kg/day
